Series [1] has as its target T1, A-form of the human progesterone receptor (Homo sapiens, UniProt P06401).
T1 sequence (P06401 1-769 isoform P06401-2): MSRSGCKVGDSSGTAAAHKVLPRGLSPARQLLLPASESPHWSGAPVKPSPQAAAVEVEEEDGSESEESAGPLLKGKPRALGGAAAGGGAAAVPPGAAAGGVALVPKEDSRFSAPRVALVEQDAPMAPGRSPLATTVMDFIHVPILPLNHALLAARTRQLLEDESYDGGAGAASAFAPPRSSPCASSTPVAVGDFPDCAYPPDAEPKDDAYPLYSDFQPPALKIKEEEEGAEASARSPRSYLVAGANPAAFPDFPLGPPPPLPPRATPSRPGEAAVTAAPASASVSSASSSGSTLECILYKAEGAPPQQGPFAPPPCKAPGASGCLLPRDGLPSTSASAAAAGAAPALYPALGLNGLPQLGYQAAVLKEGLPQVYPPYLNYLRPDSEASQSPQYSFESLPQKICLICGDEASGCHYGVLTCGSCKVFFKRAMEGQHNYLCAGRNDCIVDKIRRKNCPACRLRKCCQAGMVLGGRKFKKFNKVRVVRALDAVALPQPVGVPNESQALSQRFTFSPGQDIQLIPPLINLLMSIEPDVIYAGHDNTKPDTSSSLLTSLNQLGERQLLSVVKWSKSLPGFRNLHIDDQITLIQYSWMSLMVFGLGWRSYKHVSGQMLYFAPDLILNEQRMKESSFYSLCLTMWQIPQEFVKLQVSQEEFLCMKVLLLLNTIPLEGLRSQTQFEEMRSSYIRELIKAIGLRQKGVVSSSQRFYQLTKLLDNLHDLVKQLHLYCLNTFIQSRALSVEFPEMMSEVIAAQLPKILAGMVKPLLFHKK
Description: hPR binding assay (competitive radioligand binding).

Series [2] concerns rat uterine decidualization. Kind of series: Rat decidualization assay. Type of series: in vivo. As to conditions: for inhibition in vivo at 3 mg/kg / inhibition in vivo at 10 mg/kg: read-out: Decid. IC50 mg/kg; for EC50: s.c., half-maximal increase in decidual response (uterine wet weight), ovariectomized rats, individual studies. Here is the method: 1. Rat Decidualization Assay
The animals are treated once daily for seven days.
Uteri are removed and trimmed of fat.
Decidual response: [(D-C)/C]×100%

The test system of a further series is T47D cells. Kind of series: T47D cell proliferation assay (BrdU incorporation). Format: cell-based. As to conditions: half-maximal increase in BrdU incorporation, individual studies. Here is the method: 3. T47D Cell Proliferation Assay
The objective of this assay is the determination of progestational and antiprogestational potency by using a cell proliferation assay in T47D cells. A compound's effect on DNA synthesis in T47D cells is measured.
DMEM:F12 (1:1) (GIBCO, BRL) supplemented with 10% (v/v) fetal bovine serum (not heat-inactivated), 100 U/ml penicillin, […], and 2 mM GlutaMax (GIBCO, BRL).
Minimum Essential Medium (MEM) (#51200-038GIBCO, BRL) phenol red-free supplemented with 0.5% charcoal stripped fetal bovine serum, 100 U/ml penicillin, 200 mg/ml streptomycin, and 2 mM GlutaMax (GIBCO, BRL).
Stock T47 D cells are maintained in growth medium For BrdU incorporation assay, cells are plated in 96-well plates (Falcon, Becton Dickinson Labware) at 10,000 cells/well in growth medium. […]
At the end of BrdU labeling, the medium is removed and BrdU incorporation is measured using a cell proliferation ELISA kit (#RPN 250, Amersham Life Science) according to manufacturer's instructions. […] Then 25 μl of 1 M sulfuric acid is added to each well to stop color reaction and optical density is read in a plate reader at 450 nm within 5 min.
Square root-transformed data are used for analysis of variance and nonlinear dose response curve fitting for both agonist and antagonist modes. […] EC50 or IC50 values are calculated from the retransformed values. […]
A general note: Incorporation of labelled thymidine or its analogues reports DNA synthesis.

The mark [3] stands for this setting: @ 3 mg/kg, rat decidualization, antiprogestational mode.
[4] abbreviates: rat decidualization, antiprogestational mode.

This note sets out measurements from patent US6391907B1, “Indoline derivatives” (American Home Products Corporation, priority 1999, dated 2002).

Structures are written as SMILES. Values joined by “and” are separate entries in the source; they are usually repeats but may differ in a detail not shown here. Equal entries are not always repeated.

Consider `O=C1Nc2ccc(-c3ccc([N+](=O)[O-])[nH]3)cc2C12CCCCC2` [Example 44, 5′-(5-Nitro-1H-pyrrol-2-yl)spiro[cyclohexane-1,3′-[3H]indol]-2′(1′H)-one], for which the melting point is 278 °C (dec.). Besides, the inhibition constant (Ki) in series [1] stood at 123 nM. In addition, the inhibition in vivo at 3 mg/kg in series [2] (setting [3]) turned out to be 50%.

As for `N#Cc1cccc(-c2ccc3c(c2)C2(CCCCC2)C(=O)N3)c1` [Example 47], the melting point lay within 190 to 191 °C. In series [2] (setting [4]), the inhibition in vivo at 10 mg/kg is 50%.

Regarding `CC#C[C@]1(O)CC[C@H]2[C@@H]3CCC4=CC(=O)CCC4=C3[C@@H](c3ccc(N(C)C)cc3)C[C@@]21C` [RU486], the IC50 in series [2] (p.o., half-maximal decrease in EC50 progesterone induced decidual response, rats) was 0.21 mg/kg and 0.14 mg/kg.

As for `C[C@H](O)C(=O)[C@@]1(C)CC[C@H]2[C@@H]3CCC4=CC(=O)CCC4=C3CC[C@@]21C` [Trimegestone], in the series with T47D cells, the EC50 was 0.017 nM and 0.014 nM and 0.019 nM.

`C#C[C@]1(O)CC[C@H]2[C@@H]3CCC4=CC(=O)CC[C@@H]4[C@H]3C(=C)C[C@@]21CC` [3-Ketodesogestrel]: the EC50 in series [2] was 0.10 mg/kg and 0.06 mg/kg and 0.11 mg/kg.

With `N#Cc1cc(-c2ccc3c(c2)C2(CCCCC2)C(=O)N3)cs1` [Example 34, 4-(1,2-Dihydro-2-oxospiro[cyclohexane-1,3-[3H]indol]-5-yl)-2-thiophenecarbonitrile], the Ki in series [1] came to 19 nM. For the same molecule, in series [2] (setting [4]), the inhibition in vivo at 10 mg/kg is 50%.

Turning to `N#Cc1cc(F)cc(-c2ccc3c(c2)C2(CCCC2)C(=O)N3)c1` [Example 80, 5′-(3-Cyano-5-fluorophenyl)-spiro[cyclopentane-1,3′-[3H]indol]-2′(1′H)-one], in series [2] (setting [3]), the inhibition in vivo at 3 mg/kg was 70%.

For `O=C1Nc2ccc(-c3cc(F)cc([N+](=O)[O-])c3)cc2C12CCCCC2` [Example 32, 5-(3-Fluoro-5-nitrophenyl)spiro[cyclohexane-1,3-[3H]indol]-2(1H)-one], the melting point lay within 191 to 193 °C. In series [1], this molecule registered an inhibition constant Ki of 9 nM. In addition, the inhibition in vivo at 10 mg/kg in series [2] (setting [4]) was found to be 60%.

Regarding `N#Cc1cccc(-c2ccc3c(c2)C2(CCCC2)C(=O)N3)c1` [Example 77, 5′-(3-Cyanophenyl)-spiro[cyclopentane-1,3′-[3H]indol]-2′(1′H)-one], the melting point is 217 to 219 °C. In addition, in series [2] (setting [3]), the inhibition in vivo at 3 mg/kg was 60%.

For `N#Cc1ccc(-c2ccc3c(c2)C2(CCCCC2)C(=O)N3)s1` [Example 35], the melting point is 225 to 228 °C. For the same molecule, the inhibition constant (Ki) in series [1] is 22 nM. Also, the inhibition in vivo at 10 mg/kg in series [2] (setting [4]) was 50%.

As to `Cc1cc(C#N)sc1-c1ccc2c(c1)C1(CCCCC1)C(=O)N2` [Example 36, 4-Methyl-5-(2′-oxo-2′,3′-dihydrospiro[cyclohexane-1,3′-[3H]indol]-5′-yl)-2-thiophene carbonitrile], the melting point fell in the range of 200 to 203 °C. This molecule came in with a Ki in series [1] of 4.8 nM. Besides, the inhibition in vivo at 10 mg/kg in series [2] (setting [4]) was 50%.

On to `Cc1cc(C#N)sc1-c1ccc2c(c1)C1(CCCC1)C(=O)N2` [Example 73], for which, in series [2] (setting [3]), the “Decid. IC50 mg/kg” value is reported as 50% @ 3.

For the molecule `O=C1Nc2ccc(-c3ccc(F)c(Cl)c3)cc2C12CCCCC2` [Example 20, 5′-(3Chloro-4-fluorophenyl)spiro[cyclohexane-1,3′-[3H]indol]-2′(1′H)-one], the melting point fell in the range of 188 to 189 °C.

For `C#C[C@]1(O)CC[C@H]2[C@@H]3CCC4=CC(=O)CC[C@@H]4[C@H]3CC[C@@]21CC` [Levonorgestrel], in series [2], the EC50 is 0.08 mg/kg and 0.12 mg/kg and 0.09 mg/kg (2×).

`CC(C)(C)OC(=O)n1cccc1-c1ccc2c(c1)C(C)(C)C(=O)N2` [Example 84, 2-(3,3-Dimethyl-2-oxo-2,3-dihydro-1H-indol-5yl)-pyrrole-1-carboxylic acid tert-butyl ester] showed a melting point of 168.4 to 170.2 °C.

`CC(=O)O[C@]1(C(C)=O)CC[C@H]2[C@@H]3C[C@H](C)C4=CC(=O)CC[C@]4(C)[C@H]3CC[C@@]21C` [MPA, medroxyprogesterone acetate] registered an EC50 in the series with T47D cells (Homo sapiens, T47D) of 0.019 nM.

Molecule `Cc1c(-c2ccc3c(c2)C2(CCCCC2)C(=O)N3)sc2ccc(Cl)cc12` [Example 58, 5′-(5-Chloro-3-methylbenzo[b]thien-2-yl)spiro[cyclo-hexane-1,3′-[3H]indol]-2′(1′H)-one] returned a melting point of 256 to 258 °C.

In turn, `O=C1Nc2ccc(-c3ccc(F)c(Cl)c3)cc2C12CCCC2` [Example 76, 5′-(3-Chloro-4fluorophenyl)-spiro[cyclopentane-1,3′-[3H]indol]-2′(1′H)-one] registered a melting point of 202 to 204 °C.

For `CC1(C)C(=O)Nc2ccc(-c3ccc(C#N)s3)cc21` [Example 86, 5-(3,3-Dimethyl-2-oxo-2,3-dihydro-1H-indol-5-yl)-thiophene2-carbonitrile], the melting point lay within 255 to 256 °C.

In general, Ki refers to a measure of affinity in units of concentration, obtained from inhibition or displacement. The low end stands for higher affinity, the high end for lower affinity. In general, melting point refers to the temperature of the solid-liquid transition.
